According to publication PMC8279492, “Quinolinonyl Non-Diketo Acid Derivatives as Inhibitors of HIV-1 Ribonuclease H and Polymerase Functions of Reverse Transcriptase” (Journal of Medicinal Chemistry, 2021):
Where two headings read alike, the source gives them in different places.

Assays:
[1] = Compounds' toxicity, CellTiter 96 AQueous One Solution Cell Proliferation Assay; assay type: cell-based; conditions: human
Description: (§1) HIV-1 replication was monitored using HeLa-CD4-LTR-β-gal reporter cells as previously described.[69] Briefly, β-galactosidase activity was monitored 24 h post infection using a replication-competent HIV produced in-house (H9-laï coculture) and a serial dilution of molecules or an equivalent volume of DMSO. In parallel, compounds’ toxicity was determined at 24 h in the same cell line using CellTiter 96 AQueous One Solution Cell Proliferation Assay (Promega, France).

[2] = target: HIV-1 IN (Human immunodeficiency virus type 1 group M subtype B, UniProt P12497); assay: biochemical
Description: His-tagged NL4-3 IN was expressed from a pET15b plasmid in the E. coli BL21 pLys strain. Recombinant protein was purified as previously described[67] following a batch preparation on Ni-NTA beads (Qiagen, Paris, France).
Both oligonucleotides were purchased from Integrated DNA Technologies, Inc. (Coralville, IA), and the gel was purified in-house. ST reactions were performed by adding molecules or an equivalent volume of 100% dimethyl sulfoxide (DMSO, used as the drug solvent) to a mixture of 20 nM duplex DNA substrate and 400 nM IN in 50 mM MOPS pH 7.2, 7.5 mM MgCl2, and 14 mM 2-mercaptoethanol. Mixtures were incubated at 37 °C for 2 h, and the reaction was quenched by addition of an equal volume of loading buffer [formamide containing 1% sodium dodecyl sulfate (SDS), 0.25% bromophenol blue, and xylene cyanol]. […] Dried gels were visualized using a FLA5000 (Fuji Photo Film, Tokyo, Japan). Densitometric analyses were performed using ImageQuant 5.1 software from GE Healthcare.

[3] = target: T1, HIV-1 RT-associated RNase H activity (Human immunodeficiency virus type 1 group M subtype B, UniProt P03366); assay: biochemical; assay type: biochemical
T1 construct: His-tagged p66/p51 HIV-1 RT group M subtype B; His; made in house; host or cells: Escherichia coli M15
Description: (11) and β-thujaplicinol (BTP) used as positive controls.
(§2) His-tagged p66/p51 HIV-1 RT group M subtype B coded in a p6HRT-prot plasmid was expressed in the Escherichia coli strain M15.[65] Heterodimeric RTs were expressed essentially and purified as described.[66]
(§3) The HIV-1 RT-associated RNase H activity was measured as described.[68] Briefly, the reaction was carried out in a black 96-well plate in a total volume of 100 μL. […] Experiments were performed in duplicate and replicated at least two times. Data were analyzed as described.[36]

[4] = tested on: HIV-1 replication; assay: HIV-1 replication in HeLa-CD4-LTR-β-gal reporter cells; assay type: cell-based
Description: as §1

[5] = target: T2, HIV-1 RT-RDDP activity (Human immunodeficiency virus type 1 group M subtype B, UniProt P03366); assay: Polymerase assay (RNA-dependent DNA polymerase); assay type: biochemical
T2 construct: His-tagged p66/p51 HIV-1 RT group M subtype B; His; made in house; host or cells: Escherichia coli M15
Description: as §2
The HIV-1 RT-associated RNA-dependent DNA polymerase activity was measured as described.[65] Briefly, the reaction was carried out in a black 96-well plate in a total volume of 25 μL. Serial dilutions of compounds were added to the reaction mix containing 60 mM Tris HCl buffer pH 8.1, 8 mM MgCl2, 60 mM KCl, 13 mM DTT, 2.5 mM poly(A)-oligo(dT), and […].

[6] = target: T3, K451A HIV-1 RT RNase H (Human immunodeficiency virus type 1 group M subtype B, UniProt P03366, K1050A); assay: RNase H assay, point-mutant K451A RT; assay type: biochemical
T3 construct: Amino acid substitutions were introduced into the p66 HIV-1 RT subunit of a HIV-1 RT; His; made in house; host or cells: Escherichia coli M15
Description: (§4) An activity curve was performed for all of the enzymes (Figure S1), and a concentration was chosen in the linear dose-response range to perform the enzymatic-inhibition assays.
(§5) Amino acid substitutions were introduced into the p66 HIV-1 RT subunit of a HIV-1 RT using a QuikChange mutagenesis kit, following the manufacturer’s instructions (Agilent Technologies Inc., Santa Clara, CA).
as §3

[7] = target: T4, R448A HIV-1 RT RNase H (Human immunodeficiency virus type 1 group M subtype B, UniProt P03366, R1047A); assay: RNase H assay, point-mutant R448A RT; assay type: biochemical
T4 construct: Amino acid substitutions were introduced into the p66 HIV-1 RT subunit of a HIV-1 RT; His; made in house; host or cells: Escherichia coli M15
Description: as §4, §5, §3

[8] = target: T5, Y501A HIV-1 RT RNase H (Human immunodeficiency virus type 1 group M subtype B, UniProt P03366, Y1100A); assay: RNase H assay, point-mutant Y501A RT; assay type: biochemical
T5 construct: Amino acid substitutions were introduced into the p66 HIV-1 RT subunit of a HIV-1 RT; His; made in house; host or cells: Escherichia coli M15
Description: as §4, §5, §3

[9] = target: T6, K540A HIV-1 RT RNase H (Human immunodeficiency virus type 1 group M subtype B, UniProt P03366, K1139A); assay: RNase H assay, point-mutant K540A RT; assay type: biochemical
T6 construct: Amino acid substitutions were introduced into the p66 HIV-1 RT subunit of a HIV-1 RT; His; made in house; host or cells: Escherichia coli M15
Description: as §4, §5, §3

[10] = target: T7, N474A HIV-1 RT RNase H (Human immunodeficiency virus type 1 group M subtype B, UniProt P03366, N1073A); assay: RNase H assay, point-mutant N474A RT; assay type: biochemical
T7 construct: Amino acid substitutions were introduced into the p66 HIV-1 RT subunit of a HIV-1 RT; His; made in house; host or cells: Escherichia coli M15
Description: as §4, §5, §3

[11] = target: T8, Q475A HIV-1 RT RNase H (Human immunodeficiency virus type 1 group M subtype B, UniProt P03366, Q1074A); assay: RNase H assay, point-mutant Q475A RT; assay type: biochemical
T8 construct: Amino acid substitutions were introduced into the p66 HIV-1 RT subunit of a HIV-1 RT; His; made in house; host or cells: Escherichia coli M15
Description: as §4, §5, §3

[12] = target: T9, W535A HIV-1 RT RNase H (Human immunodeficiency virus type 1 group M subtype B, UniProt P03366, W1134A); assay: RNase H assay, point-mutant W535A RT; assay type: biochemical
T9 construct: Amino acid substitutions were introduced into the p66 HIV-1 RT subunit of a HIV-1 RT; His; made in house; host or cells: Escherichia coli M15
Description: as §4, §5, §3

[13] = tested on: IN; conditions: cited from earlier work
[14] = target: RNase H; conditions: cited from earlier work
[15] = HeLa-CD4-LTR-β-gal cells, CC50 (cytotoxic concentration 50%), 24 h
[16] = anti-RH activity (IC50 ± SD), HIV-1 RT-associated RNase H activity, dose-response curves, no preincubation
[17] = Human immunodeficiency virus 1, HeLa-CD4-LTR-β-gal cells, 24 h post infection, read-out: antiviral activity EC50
[18] = HeLa-CD4-LTR-β-gal cells, supplement CSV, read-out: CC50
[19] = wt (RH IC50, uM), supplement CSV, mutagenesis study
[20] = Human immunodeficiency virus 1, 24 h, read-out: antiviral activity EC50

Structure (SMILES)	CC50 at 24 h [1, 15] [µM]	IC50 [2] [µM]	IC50 [3, 16] [µM]	SI (selectivity index = CC50/EC50) [4]	EC50 [4, 17] [µM]	IC50 [5] [µM]	CC50 at 24 h [1, 18] [µM]	further results
O=C(/C=C/c1ccc2c(c1)c(=O)c(C(=O)O)cn2Cc1ccc(F)cc1)c1ccccc1 [4k, (E)-1-(4-Fluorobenzyl)-4-oxo-6-(3-oxo-3-phenylprop-1-en-1-yl)-1,4-dihydroquinoline-3 carboxylic Acid]	17 ± 4	3.38 ± 0.42	5.9 ± 0.6	3.1	5.4 ± 3.1	> 100		
O=C(O)c1cn(Cc2ccc(F)cc2)c2ccc(OCc3ccccc3)cc2c1=O [4l, 6-(Benzyloxy)-1-(4-fluorobenzyl)-4-oxo-1,4-dihydroquinoline-3-carboxylic Acid]	> 100	0.41 ± 0.03	34 ± 0.1	>8.6	11.7 ± 2.5	38.5 ± 7.1		EC50 ([4]; Human immunodeficiency virus 1, supplement CSV, read-out: EC50): 11.7 ± 2.15 µM
O=C(O)c1cn(Cc2ccc(F)cc2)c2ccc(OCc3cccc(Cl)c3Cl)cc2c1=O [4m, 6-((2,3-Dichlorobenzyl)oxy)-1-(4-fluorobenzyl)-4-oxo-1,4-dihydroquinoline-3-carboxylic Acid]	> 200	> 100	8.19 ± 0.05	>15	13.3 ± 4.5	5.6 ± 0.6	> 50	
O=C(O)c1cn(Cc2ccc(F)cc2)c2ccc(OCc3ccc(Cl)c(Cl)c3)cc2c1=O [4n, 6-((3,4-Dichlorobenzyl)oxy)-1-(4-fluorobenzyl)-4-oxo-1,4-dihydroquinoline-3-carboxylic Acid]	> 200	3.25 ± 0.85	29.5 ± 0.5	>12.4	16.1 ± 5.5	2 ± 0.8	> 50	IC50 ([3]; RH IC50 (uM), supplement CSV): 29.5 ± 0.55 µM
O=C(O)c1cn(Cc2ccc(F)cc2)c2ccc(OCc3cccc4ccccc34)cc2c1=O [4o, 1-(4-Fluorobenzyl)-6-(naphthalen-1-ylmethoxy)-4-oxo-1,4-dihydroquinoline-3-carboxylic Acid]	51 ± 11	> 100	1.51 ± 0.21			11.4 ± 2.6		IC50 [6]: 11.8 ± 1.2 µM; IC50 [7]: 19.6 ± 1.24 µM; IC50 [8]: > 100 µM; IC50 [3, 19]: 5.2 ± 1.1 µM; IC50 [9]: 31.6 ± 1.2 µM; EC50 [4, 20]: 8.4 ± 0.7 µM; IC50 [10]: 85.8 ± 1.6 µM; IC50 [11]: > 100 µM; IC50 [12]: > 100 µM
O=C(O)c1cn(Cc2ccc(F)cc2)c2ccc(OCc3ccc4c(c3)OCO4)cc2c1=O [4q, 6-(Benzo[d][1,3]dioxol-5-ylmethoxy)-1-(4-fluorobenzyl)-4-oxo-1,4-dihydroquinoline-3-carboxylic Acid]	> 200	> 100	13.5	>17.7	11.3 ± 3.5	5.1 ± 1.8	> 50	
O=C(O)c1cn(Cc2ccc(F)cc2)c2ccc(OCc3ccc(-c4ccccc4)cc3)cc2c1=O [4s, 6-([1,1′-Biphenyl]-4-ylmethoxy)-1-(4-fluorobenzyl)-4-oxo-1,4-dihydroquinoline-3-carboxylic Acid]	> 100	> 250	7.47 ± 1.55	>40	2.5 ± 1.03	11.6 ± 5.5	> 16	
O=C(O)c1cn(Cc2ccc(F)cc2)c2ccc(OCc3ccc(OCc4ccccc4)cc3)cc2c1=O [4t, 6-((4-(Benzyloxy)benzyl)oxy)-1-(4-fluorobenzyl)-4-oxo-1,4-dihydroquinoline-3-carboxylic Acid]		> 100	7.48 ± 0.28	>57.8		2.2 ± 0.1		IC50 [6]: 2.9 ± 1.3 µM; IC50 [7]: 2.2 ± 1.3 µM; IC50 [8]: > 100 µM; CC50 at 24 h ([1]; HeLa-CD4-LTR-β-gal reporter cells, CC50 (cytotoxic concentration 50%), HeLa-CD4-LTR-β-gal cells, 24 h): > 100 µM; CC50 at 24 h ([1]; HeLa-CD4-LTR-β-gal reporter cells, supplement CSV, read-out: CC50): > 16 µM; IC50 [3, 19]: 1.9 ± 0.4 µM; IC50 [9]: 2 ± 1.2 µM; EC50 [4, 20]: 1.73 ± 0.47 µM; IC50 [10]: 1.16 ± 1.41 µM; IC50 [11]: 15.6 ± 1.6 µM; Fold increase in IC50 compared to wt RT, W535A [12]: > 52.4 fold; IC50 [12]: > 100 µM; W535A (Fold) ([12]; supplement CSV, vs wt): >52.4
CCOC(=O)c1cn(Cc2ccc(F)cc2)c2ccc(OCc3cccc(Cl)c3Cl)cc2c1=O [5m, Ethyl 6-((2,3-Dichlorobenzyl)oxy)-1-(4-fluorobenzyl)-4-oxo-1,4-dihydroquinoline-3-carboxylate]	21.6 ± 2.8	0.05 ± 0.01	24	1.2	17.8 ± 2.3	1.88 ± 0.04	23.9 ± 4.5	
CCOC(=O)c1cn(Cc2ccc(F)cc2)c2ccc(OCc3ccc(Cl)c(Cl)c3)cc2c1=O [5n, Ethyl 6-((3,4-Dichlorobenzyl)oxy)-1-(4-fluorobenzyl)-4-oxo-1,4-dihydroquinoline-3-carboxylate]	20.6 ± 4.4	9.45 ± 0.55	37.2 ± 7.6	1.4	14.6 ± 3.1	24.1 ± 8.6		IC50 ([3]; RH IC50 (uM), supplement CSV): 37.2 ± 7.58 µM
CCOC(=O)/C(O)=C/C(=O)/C=C/c1cccn1Cc1ccc(F)cc1 [compound 1]								IC50 ([13]; supplement CSV, earlier compounds 1 and 2, ref 29−33, read-out: IN ST IC50): 90 µM
O=C(O)/C(O)=C/C(=O)c1cn(Cc2ccc(F)cc2)c2cc(N3CCCC3)ccc2c1=O [compound 2]								IC50 ([13]; read-out: IN inhibitory activity IC50): 0.028 µM; IC50 [14]: 5.1 µM
